Experimental data from US9040518B2, “Chemical compounds” (GlaxoSmithKline LLC, priority 2010, dated 2015).
Structures can show the parent of a compound that is named as a salt.

Target: ileal bile acid cotransporter (iBAT) (Homo sapiens (Human), UniProt Q12908)
Assay: Human iBAT inhibition: [3H]-taurocholate uptake into HEK293 cells expressing human iBAT
Assay type: cell-based
Conditions: HEK293 cells transduced with human iBAT Bacmam virus, 90 minutes at ambient temperature, mean of at least 2 datapoints
Procedure: Method for Determination of Human iBAT Inhibition:
In preparation for measurement of bile acid uptake into cells expressing the ileal bile acid cotransporter (iBAT), HEK293 cells were cultured in DMEM/F12 supplemented with 10% FBS. Twenty four hours prior to running an experiment, cells were harvested when at a confluence of 80-90%. Cells were seeded in poly-d-lysine coated plates at 50,000 cells per well, and human iBAT Bacmam virus was added such that each well contains 3.67×10e6 pfu (73.4pfu/cell). Each assay plate was covered with Breathe Easy Seal and placed in an incubator for 24 hours to allow expression of the transporter.
On the day of the uptake experiment, 10 mM HEPES was added to Hank's Balanced Salt Solution, and the pH was adjusted to 7.4 with TRIS (HBSSH). The assay buffer was prepared by adding […] [^3H]-taurocholate and 10 μM cold taurocholate to room temperature HBSSH. A separate washing buffer was prepared by adding 10 μM cold taurocholate to HBSSH (˜30 ml per assay plate) and placed on ice. Using 100% DMSO, 8 point, 3-fold dilution curves for each test compound was prepared starting at 200 μM. Similarly, an 8 point dose response curve was prepared of the control compound [(3R,5R)-3-butyl-3-ethyl-7,8-bis(methyloxy)-5-phenyl-2,3,4,5-tetrahydro-1,4-benzothiazepine 1,1-dioxide (Brieaddy, L. E. WO9605188, 1996)] starting at 1.8 mM. Drug plates were created by adding 3 μL of each concentration to a v-bottom 96-well plate then diluted 60-fold with 177 μL of assay buffer. Plates were removed from the incubator and allowed to cool to ambient temperature. Media was aspirated, and wells were washed once with 300 μL HBSSH. 50 μL of each dose response curve concentration was added in triplicate by column to the assay plates, reserving column 10 for control (assay buffer+1.67% DMSO) and columns 11 and 12 for the control compound. Plates were incubated at ambient temperature for 90 minutes then the plates were aspirated then washed 1× with 300 μL of wash buffer. 220 μL of Microscint 20 was added to each well, and the plates were sealed. The amount of [^3H]-taurocholate in cell lysate was quantitated using a microplate scintillation counter on the following day.
IC50's can be generated using the formula, y=(Vmax*x^n)/(K^n+x^n).

Sequence of ileal bile acid cotransporter (iBAT) (Q12908 whole entry): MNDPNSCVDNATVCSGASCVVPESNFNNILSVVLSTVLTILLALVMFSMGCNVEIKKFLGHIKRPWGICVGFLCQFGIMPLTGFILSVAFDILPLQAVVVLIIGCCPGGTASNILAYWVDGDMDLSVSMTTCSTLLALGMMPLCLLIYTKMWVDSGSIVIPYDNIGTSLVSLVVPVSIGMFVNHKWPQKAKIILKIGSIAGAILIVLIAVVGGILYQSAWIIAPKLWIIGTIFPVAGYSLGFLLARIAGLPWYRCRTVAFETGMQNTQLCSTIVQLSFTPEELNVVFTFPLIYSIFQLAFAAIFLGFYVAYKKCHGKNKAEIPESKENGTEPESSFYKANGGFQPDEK

Row | IC50 [nM] | SMILES
1 | 51 | CCCC[C@]1(CC)CS(=O)(=O)c2cc(CCP(=O)(O)O)c(OC)cc2[C@@H](c2ccccc2)N1 [Example 51, {2-[(3R,5R)-3-butyl-3-ethyl-7-(methyloxy)-1,1-dioxido-5-phenyl-2,3,4,5-tetrahydro-1,4-benzothiazepin-8-yl]ethyl}phosphonic acid bis-ammonium salt]
2 | 425 | CCCC[C@]1(CC)CS(=O)(=O)c2cc(CN[C@H](C(=O)O)[C@@H](C)O)c(OC)cc2[C@@H](c2ccccc2)N1 [Example 56, N-{[(3R,5R)-3-butyl-3-ethyl-7-(methyloxy)-1,1-dioxido-5-phenyl-2,3,4,5-tetrahydro-1,4-benzothiazepin-8-yl]methyl}-L-threonine ammonium salt]
3 | 167 | CCCC[C@]1(CC)CS(=O)(=O)c2cc(CCC(=O)NCS(=O)(=O)O)c(OC)cc2[C@@H](c2ccccc2)N1 [Example 13, ({3-[(3R,5R)-3-butyl-3-ethyl-7-(methyloxy)-1,1-dioxido-5-phenyl-2,3,4,5-tetrahydro-1,4-benzothiazepin-8-yl]propanoyl}amino)methanesulfonic acid]
4 | 3330 | CCCC[C@]1(CC)CS(=O)(=O)c2cc(CCC(=O)NC(CC(=O)O)CC(=O)O)c(OC)cc2[C@@H](c2ccccc2)N1 [Example 17, 3-({3-[(3R,5R)-3-butyl-3-ethyl-7-(methyloxy)-1,1-dioxido-5-phenyl-2,3,4,5-tetrahydro-1,4-benzothiazepin-8-yl]propanoyl}amino)pentanedioic acid trifluoroacetate salt]
5 | 728 | CCCC[C@]1(CC)CS(=O)(=O)c2cc(CCC(=O)N(CC(=O)O)CC(=O)O)c(OC)cc2[C@@H](c2ccccc2)N1 [Example 18, 2,2′-({3-[(3R,5R)-3-butyl-3-ethyl-7-(methyloxy)-1,1-dioxido-5-phenyl-2,3,4,5-tetrahydro-1,4-benzothiazepin-8-yl]propanoyl}imino)diacetic acid]
6 | 3330 | CCCC[C@]1(CC)CS(=O)(=O)c2cc(CNC(=O)CNC(CC(=O)O)CC(=O)O)c(OC)cc2[C@@H](c2ccccc2)N1 [Example 41, 3-{[2-({[(3R,5R)-3-butyl-3-ethyl-7-(methyloxy)-1,1-dioxido-5-phenyl-2,3,4,5-tetrahydro-1,4-benzothiazepin-8-yl]methyl}amino)-2-oxoethyl]amino}pentanedioic acid trifluoroacetate salt]
7 | 17 | CCCC[C@]1(CC)CS(=O)(=O)c2cc(CN(O)CC(=O)O)c(OC)cc2[C@@H](c2ccccc2)N1 [Example 48, N-{[(3R,5R)-3-butyl-3-ethyl-7-(methyloxy)-1,1-dioxido-5-phenyl-2,3,4,5-tetrahydro-1,4-benzothiazepin-8-yl]methyl}-N-hydroxyglycine]
8 | 20 | CCCC[C@]1(CC)CS(=O)(=O)c2cc(CCC(=O)NS(C)(=O)=O)c(OC)cc2[C@@H](c2ccccc2)N1 [Example 11, 3-[(3R,5R)-3-butyl-3-ethyl-7-(methyloxy)-1,1-dioxido-5-phenyl-2,3,4,5-tetrahydro-1,4-benzothiazepin-8-yl]-N-(methylsulfonyl)propanamide]
9 | 622 | CCCC[C@]1(CC)CS(=O)(=O)c2cc(CCCO)c(OC)cc2[C@@H](c2ccccc2)N1 [Example 19, 3-[(3R,5R)-3-butyl-3-ethyl-7-(methyloxy)-1,1-dioxido-5-phenyl-2,3,4,5-tetrahydro-1,4-benzothiazepin-8-yl]-1-propanol]
10 | 2 | CCCC[C@]1(CC)CS(=O)(=O)c2cc(CCCC(=O)O)c(OC)cc2[C@@H](c2ccccc2)N1 [Example 23, 4-[(3R,5R)-3-butyl-3-ethyl-7-(methyloxy)-1,1-dioxido-5-phenyl-2,3,4,5-tetrahydro-1,4-benzothiazepin-8-yl]butanoic acid trifluoroacetate salt]
11 | 51 | CCCC[C@]1(CC)CS(=O)(=O)c2cc(CCCP(=O)(O)O)c(OC)cc2[C@@H](c2ccccc2)N1 [Example 21, {3-[(3R,5R)-3-butyl-3-ethyl-7-(methyloxy)-1,1-dioxido-5-phenyl-2,3,4,5-tetrahydro-1,4-benzothiazepin-8-yl]propyl}phosphonic acid trifluoroacetate salt]
12 | > 3000 | CCCC[C@]1(CC)CS(=O)(=O)c2cc(C(CC(=O)O)CC(=O)O)c(OC)cc2[C@@H](c2ccccc2)N1 [Example 72, 3-[(3R,5R)-3-butyl-3-ethyl-7-(methyloxy)-1,1-dioxido-5-phenyl-2,3,4,5-tetrahydro-1,4-benzothiazepin-8-yl]pentanedioic acid]
13 | 54 | CCCC[C@]1(CC)CS(=O)(=O)c2cc(CNCCS(=O)(=O)O)c(OC)cc2[C@@H](c2ccccc2)N1 [Example 35, 2-({[(3R,5R)-3-butyl-3-ethyl-7-(methyloxy)-1,1-dioxido-5-phenyl-2,3,4,5-tetrahydro-1,4-benzothiazepin-8-yl]methyl}amino)ethanesulfonic acid ammonium salt]
14 | 32 | CCCC[C@]1(CC)CS(=O)(=O)c2cc(C(=O)NCC(C)(C)C(=O)O)c(OC)cc2[C@@H](c2ccccc2)N1 [Example 1, 3-({[(3R,5R)-3-butyl-3-ethyl-7-(methyloxy)-1,1-dioxido-5-phenyl-2,3,4,5-tetrahydro-1,4-benzothiazepin-8-yl]carbonyl}amino)-2,2-dimethylpropanoic acid]
15 | 9 | CCCC[C@]1(CC)CS(=O)(=O)c2cc(CNC(=O)CS(=O)(=O)O)c(OC)cc2[C@@H](c2ccccc2)N1 [Example 37, 2-({[(3R,5R)-3-butyl-3-ethyl-7-(methyloxy)-1,1-dioxido-5-phenyl-2,3,4,5-tetrahydro-1,4-benzothiazepin-8-yl]methyl}amino)-2-oxoethanesulfonic acid]

Row | SMILES | IC50 [nM]
16 | CCCC[C@]1(CC)CS(=O)(=O)c2cc(CNC(CC(=O)O)CC(=O)O)c(N(C)C)cc2[C@@H](c2ccccc2)N1 [Example 69, 3-({[(3R,5R)-3-butyl-7-(dimethylamino)-3-ethyl-1,1-dioxido-5-phenyl-2,3,4,5-tetrahydro-1,4-benzothiazepin-8-yl]methyl}amino)pentanedioic acid bis-ammonium salt] | 19
17 | CCCC[C@]1(CC)CS(=O)(=O)c2cc(CN[C@H](CC(=O)O)C(=O)O)c(OC)cc2[C@@H](c2ccccc2)N1 [Example 28, N-{[(3R,5R)-3-butyl-3-ethyl-7-(methyloxy)-1,1-dioxido-5-phenyl-2,3,4,5-tetrahydro-1,4-benzothiazepin-8-yl]methyl}-D-aspartic acid trifluoroacetate salt] | 55
18 | CCCC[C@]1(CC)CS(=O)(=O)c2cc(CNCCCC(=O)O)c(OC)cc2[C@@H](c2ccccc2)N1 [Example 30, 4-({[(3R,5R)-3-butyl-3-ethyl-7-(methyloxy)-1,1-dioxido-5-phenyl-2,3,4,5-tetrahydro-1,4-benzothiazepin-8-yl]methyl}amino)butanoic acid trifluoroacetate salt] | 1290
19 | CCCCC1(CCCC)CS(=O)(=O)c2cc(CP(=O)(O)O)c(OC)cc2C(c2ccccc2)N1 (stereo not drawn) [Example 67, {[3,3-dibutyl-7-(methyloxy)-1,1-dioxido-5-phenyl-2,3,4,5-tetrahydro-1,4-benzothiazepin-8-yl]methyl}phosphonic acid trifluoroacetate salt] | 52
20 | CCCC[C@]1(CC)CS(=O)(=O)c2cc(C(=O)NCCS(=O)(=O)O)c(OC)cc2[C@@H](c2ccccc2)N1 [Example 3, 2-({[(3R,5R)-3-butyl-3-ethyl-7-(methyloxy)-1,1-dioxido-5-phenyl-2,3,4,5-tetrahydro-1,4-benzothiazepin-8-yl]carbonyl}amino)ethanesulfonic acid trifluoroacetate] | 2
21 | CCCCC1(CCCC)CS(=O)(=O)c2cc(CNCC(=O)O)c(OC)cc2C(c2ccccc2)N1 (stereo not drawn) [Example 66, N-{[3,3-dibutyl-7-(methyloxy)-1,1-dioxido-5-phenyl-2,3,4,5-tetrahydro-1,4-benzothiazepin-8-yl]methyl}glycine trifluoroacetate salt] | 21
